The results in this text go back to the Deep4Chem optical property database.

The series in a line: solvent given as SMILES.

Regarding `CCN(CC)c1ccc2cc(-c3nc4ccccc4n3-c3ccccc3)c(=O)oc2c1`, where the note is “in ClCCl”, the fluorescence lifetime was found to be 13.2 ns.
On to `Cc1ccc2ccccc2c1`, for which the fluorescence lifetime (in C1CCCCC1) was found to be 114 ns.
Where the note is “in ClCCl”, `COC(=O)c1cc(=O)n(C)c2cc(-c3ccc4c(c3)OCO4)sc12` registered a fluorescence lifetime of 1.72 ns.
On to `CC1(C)c2ccccc2-c2ccc(N3c4ccc(-c5ccc(/C=C6\C(=O)c7ccc(C(=O)O)cc7C6=O)s5)cc4C4CCCC43)cc21` (centres undefined), for which the fluorescence lifetime (in ClC(Cl)Cl) worked out at 1.04 ns.
`CCCCc1cc2cccc[n+]2[b-]2c(-c3cccc4[b-]3[n+]3ccccc3cc4CCCC)cccc21` showed a fluorescence lifetime (in C1CCCCC1) of 4.3 ns.
The compound `CCOC(=O)c1ccc2c(c1)[nH]c1c3ccc(C(=O)OCC)cc3[se]c21` registered a fluorescence lifetime (in CCCO) of 0.15 ns.
In turn, `CCC12C(=C3C(=C4c5ccc(-c6ccc(CO)cc6)cc5S(=O)(=O)C41CC)C(F)(F)C(F)(F)C3(F)F)c1ccc(-c3ccc(CO)cc3)cc1S2(=O)=O` (centres undefined) returned a fluorescence lifetime (in C1COCCO1) of 2.9 ns.
In turn, `N#C/C=C/c1ccc2ccc3cccc4ccc1c2c34` registered a fluorescence lifetime (in C1CCOC1) of 3.2 ns, a fluorescence lifetime (in CC#N) of 3 ns and a fluorescence lifetime (in CC(C)=O) of 3.1 ns.
Regarding `CN(C)c1ccc2nc(/C=C/c3ccccc3)c(=O)oc2c1`, the fluorescence lifetime worked out at 2.82 ns (in C1CCCCC1); 3.52 ns (in C1COCCO1); 3.95 ns (in CC#N); 3.82 ns (in CC(C)=O); 2.8 ns (in CCCCCCC); 3.77 ns (in CCO). In addition, the fluorescence lifetime reads like this: (in CCOC(C)=O) 3.58 ns; (in CN(C)C=O) 3.65 ns; (in CS(C)=O) 3.58 ns; (in Cc1ccccc1) 3 ns; (in ClC(Cl)Cl) 3.74 ns; (in ClCCl) 3.83 ns.
Consider `CC(=O)c1ccc(-c2cnc3nn4ccccc4c3n2)cc1`, for which the fluorescence lifetime (in C1CCOC1) was 5.1 ns.
For the compound `C[SiH](C)c1ccc([SiH](C)C)c2ccccc12`, the fluorescence lifetime (in C1CCCCC1) is 30 ns.
With `CCC1(CC)c2ccccc2-c2c1c1c(c3c2C(CC)(CC)c2cc(N(c4ccccc4)c4ccccc4)ccc2-3)C(CC)(CC)c2cc(N(c3ccccc3)c3ccccc3)ccc2-1`, where the note is “in C1CCOC1”, the fluorescence lifetime stood at 1.9 ns.
With `Nc1ccc2c(c1)C(=O)N(C13C[C@H]4C[C@@H](C1)C[C@@H](C3)C4)C2=O`, the fluorescence lifetime reads like this: (in C1CCCCC1) 10.7 ns; (in C1CCOC1) 18.2 ns; (in CC#N) 19 ns; (in CCOC(C)=O) 17 ns; (in CO) 9.49 ns; (in CS(C)=O) 22.4 ns. The fluorescence lifetime runs as follows: (in Cc1ccccc1) 17.3 ns; (in ClCCl) 24.6 ns.
Under “in ClCCl”, `Cc1ccc(C(=O)c2c(C)c3ccc4cccc5c6cccc7ccc2c(c76)c3c45)cc1` gave a fluorescence lifetime of 3.6 ns.
With `O=C1C(=c2c(=O)c3c4ccccc4cc4cc5ccccc5c2c43)C(=O)c2ccccc21`, the fluorescence lifetime by setting is: (in C1CCOC1) 10.7 ns; (in CC#N) 6.9 ns; (in CCCCCC) 12.4 ns; (in Cc1ccccc1) 11.3 ns; (in ClCCl) 8.7 ns.
With `CCOC(=O)CCCCCn1c2ccc([N+](=O)[O-])cc2c(=O)c2cc3c(cc21)c(=O)c1cc([N+](=O)[O-])ccc1n3CCCCCC(=O)OCC`, where the note is “in ClCCl”, the fluorescence lifetime amounted to 5.1 ns.
`N#Cc1ccc(N(c2ccc(C#N)cc2)c2ccc3c4cccc5c(N(c6ccc(C#N)cc6)c6ccc(C#N)cc6)ccc(c6cccc2c63)c54)cc1`: for the setting “in ClCCl”, the fluorescence lifetime amounted to 3.54 ns.
For the compound `CCN(CC)c1cccc(C=O)c1`, the fluorescence lifetime reads like this: (in CC#N) 11.7 ns; (in CC(C)O) 1.47 ns; (in CCCCCC) 5.95 ns; (in CCOC(C)=O) 14.3 ns; (in CS(C)=O) 21.9 ns; (in Cc1ccccc1) 16.2 ns. Also, the fluorescence lifetime (in ClCCl) came to 26.6 ns.
For the compound `O=C(c1ccccc1)c1cc2ccc1CCc1ccc(cc1-c1ccc(N(c3ccccc3)c3ccccc3)cc1)CC2`, the fluorescence lifetime (in c1cc(-n2c3ccccc3c3ccccc32)cc(-n2c3ccccc3c3ccccc32)c1) is 17 ns.
